# Counter-ions that a name gives are not always drawn.
# What was measured:
# PRMT6 = PRMT6 (Homo sapiens, UniProt Q96LA8); test: AlphaLISA selectivity assay, PRMT6; assay type: biochemical; details: read-out: IC50 against PRMT6
# Method: (§1) […]. […] Next, 5 μl of enzyme solution was transferred to the assay plate and incubated at room temperature for 15 min. Then, 5 μl of substrate solution was added to each well to start the reaction. After incubation at room temperature for 30 min (PRMT4,6) and 60 min (PRMT3,8), 15 μl of acceptor and donor bead mix solution were added to the assay plate and incubated at room temperature for 60 min with subdued light. The signal was collected with Envision or EnSpire with Alpha mode. The data were analyzed in GraphPad Prism 5 to obtain IC50 values.
# TGF-β signaling = test: cells; details: 18 h, read-out: IC50, inhibition of TGF-β signaling
# Method: The medium was changed into DMEM with 0.1% FBS. […] The final concentration of DMSO should be maintained at 0.1%. After incubation, the medium was removed and the cells were rinsed with PBS to remove any residual compound. One hundred microliters of the Steady-Glo® Luciferase Assay reagent (Promega) was added to each well, and the cells were lysed in the dark for 10 min on a horizontal shaker. The luciferase activity was measured in a luminometer.
# PRMT8 = PRMT8 (Homo sapiens, UniProt Q9NR22); test: AlphaLISA selectivity assay, PRMT8; assay type: biochemical; details: read-out: IC50 against PRMT8
# Chain of PRMT8 (Q9NR22 whole entry): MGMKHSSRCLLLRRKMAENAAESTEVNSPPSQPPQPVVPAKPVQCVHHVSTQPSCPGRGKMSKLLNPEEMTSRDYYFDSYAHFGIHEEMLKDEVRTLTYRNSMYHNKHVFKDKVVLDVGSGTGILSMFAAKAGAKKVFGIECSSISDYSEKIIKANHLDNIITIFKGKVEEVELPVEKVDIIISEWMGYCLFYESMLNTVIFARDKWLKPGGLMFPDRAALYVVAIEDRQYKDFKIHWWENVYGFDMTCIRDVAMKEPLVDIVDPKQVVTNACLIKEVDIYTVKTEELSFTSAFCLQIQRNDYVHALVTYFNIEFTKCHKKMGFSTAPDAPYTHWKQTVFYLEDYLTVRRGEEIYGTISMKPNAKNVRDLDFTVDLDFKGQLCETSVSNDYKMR
# Method: as §1
# PRMT4 = target: T1, PRMT4 (Homo sapiens, UniProt Q86X55); test: AlphaLISA selectivity assay, PRMT4; assay type: biochemical; details: read-out: IC50 against PRMT4
# T1 sequence (Q86X55 1-608): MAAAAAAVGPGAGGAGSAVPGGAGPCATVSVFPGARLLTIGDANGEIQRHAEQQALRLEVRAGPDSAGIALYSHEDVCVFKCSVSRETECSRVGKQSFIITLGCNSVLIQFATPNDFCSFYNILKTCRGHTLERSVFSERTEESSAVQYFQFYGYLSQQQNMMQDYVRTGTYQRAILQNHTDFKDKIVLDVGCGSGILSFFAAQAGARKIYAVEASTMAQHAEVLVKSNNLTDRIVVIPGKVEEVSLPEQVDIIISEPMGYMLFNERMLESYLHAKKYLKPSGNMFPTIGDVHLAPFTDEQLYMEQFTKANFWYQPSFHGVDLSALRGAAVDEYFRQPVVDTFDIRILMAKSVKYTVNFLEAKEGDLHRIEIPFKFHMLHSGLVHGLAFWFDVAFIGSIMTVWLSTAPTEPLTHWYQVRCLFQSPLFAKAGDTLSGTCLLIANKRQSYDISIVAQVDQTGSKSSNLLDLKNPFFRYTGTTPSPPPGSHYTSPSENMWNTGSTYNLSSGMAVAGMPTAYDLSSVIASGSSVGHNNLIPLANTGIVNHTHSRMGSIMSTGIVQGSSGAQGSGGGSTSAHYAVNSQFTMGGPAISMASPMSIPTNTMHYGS
# Method: as §1
# MLEC = MLEC cell viability (CCK-8) under the luciferase assay condition; assay type: cell-based, mink; details: concentration up to 100 μM, same condition as luciferase assay
# Method: (§2) Cells were seeded into a 96-well plate; after 12 h of attachment, the cells were treated with different concentrations (0–1,600 μΜ) of WCJ-394 for 48 h. Cell viability was assessed by a Cell Counting Kit-8 (CCK-8; MCE) according to the manufacturer’s instructions. Briefly, after treatment, the CCK-8 solution was added to the culture medium and incubated at 37°C for 1 h. Cell viability was assessed by measuring the absorbance at 450 nm. In the subsequent luciferase assays, the effects of WCJ-394 on the cell viability were examined in parallel to exclude the compound-induced cell death.
# The luciferase activity was measured in a luminometer.
# A549 cells [1] = test: Western blot of PRMT-related proteins (SDMA, ADMA, DDAH, PRMT1) in A549 cells; assay type: cell-based, human; details: WCJ-394 5, 10, 20 μM, 48 h
# Method: (§3) A549 cells in the logarithmic growth phase were seeded into a 6-well cell culture plate at a density of 3 × 10^5 cells per well.
# (§4) A549 cells were lysed in RIPA buffer, which contains protease and phosphatase inhibitors, and then harvested in Eppendorf tubes for centrifugation (14,000 rpm for 10 min at 4°C) to remove cell debris. The supernatants were transferred into new Eppendorf tubes, and the protein concentration was quantified with a BCA kit (Thermo Fisher). The protein samples were separated by 10% SDS-PAGE and transferred onto polyvinylidene difluoride (PVDF) membranes. The membranes were blocked for 1 h at room temperature in 5% BSA and then incubated with the corresponding primary antibodies overnight at 4°C and then incubated with secondary antibodies for another 1 h at room temperature. After being washed with TBST buffer three times, the PVDF membranes were visualized with ECL reagents (Millipore) and the Western blot results were further analyzed by ImageJ software (National Institutes of Health).
# A549 cells [2] = test: Scratch wound healing assay, TGF-β1-induced A549 cell migration; assay type: cell-based, human
# Method: In the scratch wound healing assay, the percentages of scratch widths at 24 and 48 h compared to that of 0 h were used to denote the rate of A549 cell migration. As shown in Figures 6A–C, the TGF-β1 treatment promoted the scratched wound closure.
# The monolayer cell was scratched with a new 10 μl pipette tip across the center of the well, and the detached cells were gently rinsed with PBS buffer. […] The scratch was photographed through a microscope at ×100 magnification at 0, 24, and 48 h. Then, the scratch width was quantified by ImageJ software and the rate of wound closure was calculated with the final values expressed as a migration percentage of the scratch width relative to 0 h.
# PRMT1 = PRMT1 (Homo sapiens, UniProt Q99873); test: Radioactive PRMT1 methylation inhibition assay ([3H]-SAM, biotinylated histone H4 peptide); assay type: biochemical
# Chain of PRMT1 (Q99873 whole entry): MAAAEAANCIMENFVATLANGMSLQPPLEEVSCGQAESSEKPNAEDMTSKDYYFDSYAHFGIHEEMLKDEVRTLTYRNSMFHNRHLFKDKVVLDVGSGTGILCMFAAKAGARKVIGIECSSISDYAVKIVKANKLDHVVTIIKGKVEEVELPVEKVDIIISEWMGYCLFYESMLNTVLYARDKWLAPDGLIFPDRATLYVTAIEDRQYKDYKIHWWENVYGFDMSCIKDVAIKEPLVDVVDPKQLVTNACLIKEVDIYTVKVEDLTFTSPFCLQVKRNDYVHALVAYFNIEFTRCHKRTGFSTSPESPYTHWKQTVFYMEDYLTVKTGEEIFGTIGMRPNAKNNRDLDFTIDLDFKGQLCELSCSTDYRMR
# Method: A series of 2,5-substituted furan and 2,4-substituted thiazole derivatives were synthesized and screened for their inhibitory effects on PRMT1 by using the radioactive PRMT1 methylation inhibition assay, which measured the amount of methyl groups that transferred from [^3H]-SAM to a biotinylated histone H4 peptide [ac-[…](Biotin)] (Tables 1–3).
# The enzyme inhibitory activities and selectivity were measured by the radioisotope assay and AlphaLISA assay in ShangHai Chempartner Co., Ltd., according to the standard protocol. […] After 250 nL of compound solutions were added to the assay plate, 15 μl of PRMT1 enzyme solution or ×1 assay buffer for negative control was transferred to each well of prepared compound stock plates and the whole system (the final concentration of PRMT1 was 0.5 nM or 2 nM in the system) was incubated for 15 min at room temperature. […] Afterward, the reaction was stopped with the addition of 5 μl cold SAM solution to each well. Then, 25 μl volume per well was transferred to a Flashplate from the assay plate and incubated for a minimum of 1 h at room temperature. Finally, the Flashplate was washed with dH2O and 0.1% Tween-20 three times and then the reading plate in Microbeta using the program ^3H-Flashplate. The data were analyzed in GraphPad Prism 5 to obtain IC50 values.
# [3] = CCK-8 cell viability assay in A549 cells; assay type: cell-based, human; details: human, A549 cells treated for 48 h, read-out: IC50 (CC50), A549 cell viability
# Method: (§5) To determine the effects of WCJ-394 on the inhibition of TGF-β1-induced epithelial–mesenchymal transition (EMT) in A549 cells, the characterized proteins were detected using the Western blotting assay.
# as §2
# A549 cells [4] = test: CCK-8 cell viability assay in A549 cells; assay type: cell-based, human; details: concentrations of 0–50 μM
# Method: as §5, §2
# PRMT3 = PRMT3 (Homo sapiens, UniProt O60678); test: AlphaLISA selectivity assay, PRMT3; assay type: biochemical; details: read-out: IC50 against PRMT3
# Chain of PRMT3 (O60678 whole entry): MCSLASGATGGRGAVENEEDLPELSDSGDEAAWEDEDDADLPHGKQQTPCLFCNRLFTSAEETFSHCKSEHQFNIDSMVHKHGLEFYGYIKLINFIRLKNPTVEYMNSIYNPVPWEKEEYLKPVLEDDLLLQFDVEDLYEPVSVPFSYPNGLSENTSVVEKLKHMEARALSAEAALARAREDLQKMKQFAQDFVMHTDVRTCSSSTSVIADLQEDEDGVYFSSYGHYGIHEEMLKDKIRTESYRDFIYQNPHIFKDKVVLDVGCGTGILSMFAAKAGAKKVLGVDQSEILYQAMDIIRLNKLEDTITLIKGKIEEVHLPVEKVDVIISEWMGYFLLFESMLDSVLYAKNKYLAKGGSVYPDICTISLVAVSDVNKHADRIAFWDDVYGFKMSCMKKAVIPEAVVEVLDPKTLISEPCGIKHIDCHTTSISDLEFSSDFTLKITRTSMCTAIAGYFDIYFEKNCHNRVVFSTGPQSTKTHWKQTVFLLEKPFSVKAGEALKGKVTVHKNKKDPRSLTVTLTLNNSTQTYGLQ
# Method: as §1
# A549 cells [5] = test: Western blot of TGF-β1-induced mesenchymal markers (EMT) in A549 cells; assay type: cell-based, human; details: TGF-β1 48 h, WCJ-394 pretreatment 5, 10, 20 μM
# Method: as §3, §4
# A549 cells [6] = test: Transwell migration assay, TGF-β1-induced A549 cell migration; assay type: cell-based, human; details: TGF-β1, WCJ-394 pretreatment 5, 10, 20 μM
# Method: A549 cells in the logarithmic growth phase were resuspended with a serum-free DMEM medium and seeded into the 8-μm transwell filter inserts at a density of 8 × 10^3 cells per well; meanwhile, 600 μl medium containing 10% FBS was added into the lower chambers of the 24-well cell culture plate. […] After incubation, the cells in the upper chambers were carefully removed with a cotton swab, while the cells that had traversed to the bottom side of the membrane were fixed with 4% paraformaldehyde for 15 min and stained with 0.1% crystal violet for 20 min. The chambers were washed with PBS buffer to remove extra crystal violet. Three fields of view were randomly taken and photographed from the central and surrounding parts of each membrane under a microscope at ×100 magnification, and cell number was calculated by ImageJ software.
# Chain of PRMT6 (Q96LA8 whole entry): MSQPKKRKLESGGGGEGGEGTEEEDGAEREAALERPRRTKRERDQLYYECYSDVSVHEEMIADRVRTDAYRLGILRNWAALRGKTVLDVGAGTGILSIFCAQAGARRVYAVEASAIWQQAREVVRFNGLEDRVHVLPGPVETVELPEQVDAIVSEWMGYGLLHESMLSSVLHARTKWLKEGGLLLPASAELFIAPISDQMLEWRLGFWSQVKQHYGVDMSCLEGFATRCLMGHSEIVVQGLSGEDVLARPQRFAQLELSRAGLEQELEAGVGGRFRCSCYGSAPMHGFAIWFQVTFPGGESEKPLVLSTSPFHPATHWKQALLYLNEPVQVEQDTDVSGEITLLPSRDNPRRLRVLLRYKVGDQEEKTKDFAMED
smiles,measurement,setting,value
"CN(CCN)Cc1csc(-c2ccc(C(=N)N)nc2)n1 [Compound 1r, N′-[2-(2-Aminocarboximido-5-pyridyl)thiazol-4-yl-methyl]-N′-methylethylenediamine Hydrochloride]",IC50,PRMT6,29.7 ± 2.03 µM
same,IC50,TGF-β signaling,17.7 µM
same,IC50,PRMT8,5.71 ± 0.05 µM
same,IC50,PRMT4,1.64 ± 0.17 µM
same,cytotoxicity in MLEC (cell viability),MLEC,without showing significant cytotoxicity
same,expression level of ADMA,A549 cells [1],significantly reduced in a concentration-dependent manner
same,expression of DDAH,A549 cells [1],significantly decreased in a concentration-dependent manner
same,expression of PRMT1,A549 cells [1],not significantly affected
same,expression of SDMA,A549 cells [1],not affected
same,TGF-β1-induced cell migration (scratched wound closure) at 24 h,"A549 cells [2]; WCJ-394 pretreatment at 10 or 20 μM, 24 h",significantly inhibited
same,TGF-β1-induced cell migration (scratched wound closure) at 48 h,"A549 cells [2]; WCJ-394 pretreatment, 48 h",retardation effect of WCJ-394 on cell migration was further detected
same,PRMT1 IC50 compared with SAH,PRMT1; fold weaker than SAH,about two times weaker than SAH
same,IC50,"PRMT1; radioactive methylation assay, read-out: IC50 (μM) against PRMT1",1.21 ± 0.11 µM
same,inhibition at 10 µM,PRMT1; read-out: % Inhibition of PRMT1 (at 10 μM),98.5 ± 0.04%
same,IC50 at 48 h,[3],584 µM
same,cytotoxicity in A549 cells,A549 cells [4],did not result in any cytotoxicity
same,IC50,PRMT3,57.6 ± 0.62 µM
same,"expression of EMT-related proteins (fibronectin, N-cadherin, MMP-2, α-SMA)",A549 cells [5],decreased (p < 0.05) by the pretreatment of WCJ-394 in a concentration-dependent manner
same,number of migrated cells (transwell),A549 cells [6],significantly decreased the number of migrated cells in a concentration-dependent manner
